Laboratory results: patent US20170355708A1, “POTASSIUM CHANNEL MODULATORS” (Cadent Therapeutics, Inc., priority 2016, published 2017)

Biological target: T1, hSK2 channels (Homo sapiens, UniProt P0DP23+Q9H2S1)
T1 construct: expressed in transfected cells; host or cells: HEK293
Assay: Whole-cell patch-clamp recording of SK2 channel current (SC100)
Type: cell-based
Conditions: Stimulating Concentration required for increasing the baseline current by 100%, HEK293 cells expressing hSK2; for SC100 uM: Table 3; for SC100 (μM): Table 4
Experimental: The biological activity of certain compounds were determined as follows. The ionic current through small-conductance Ca^2+-activated K^+ channels (SK channels, subtype 2) is recorded using the whole-cell configuration of the patch-clamp technique in a classic patch-clamp set-up using HEK293 tissue culture cells expressing hSK2 channels as described in Kasumu et. al., Chemistry & Biology 19, 1340-1353, Oct. 26, 2012.
The SC100 value determined is defined as the Stimulating Concentration required for increasing the baseline current by 100%.

SMILES	SC100 uM	SC100 (μM)
Cc1cc(C)n(-c2cc(N3CCNC(C(N)=O)C3)nc(Nc3ccc(F)c(F)c3)n2)n1 (stereo not shown) [Compound 116, 4-(2-((3,4-difluorophenyl)amino)-6-(3,5-dimethyl-1H-pyrazol-1-yl)pyrimidin-4-yl)piperazine-2-carboxamide]	+++ (+++ means <200 nM)	–
N#Cc1ccn(-c2nc(Nc3ccc(Cl)cc3)cc(N3CC4(COC4)C3)n2)n1 [Compound 143, 1-(4-((4-chlorophenyl)amino)-6-(2-oxa-6-azaspiro[3.3]heptan-6-yl)pyrimidin-2-yl)-1h-pyrazole-3-carbonitrile]	++ (++ means 200 nM-1000 nM)	–
COc1cc(Nc2ccc(F)cc2F)nc(-c2nc(C)cs2)n1 [IN11059-023-P1]	–	++ (++ means 200 nM-1000 nM)
Cc1cc(C)n(-c2nc(Nc3ccc(Cl)cc3)nc3c2ncn3CCO)n1 [Compound 135, 2-(2-((4-chlorophenyl)amino)-6-(3,5-dimethyl-1H-pyrazol-1-yl)-9H-purin-9-yl)ethan-1-ol]	++ (++ means 200 nM-1000 nM)	–
CC(O)c1ccn(-c2nc(Nc3ccc(Cl)cc3)cc(N3CC4(COC4)C3)n2)n1 (stereo not shown) [Compound 150, 1-(1-(4-((4-chlorophenyl)amino)-6-(2-oxa-6-azaspiro[3.3]heptan-6-yl)pyrimidin-2-yl)-1H-pyrazol-3-yl)ethan-1-ol]	++ (++ means 200 nM-1000 nM)	–
Cc1ccn(-c2nc(Nc3cccc(C(F)(F)F)c3)cc(C(C)O)n2)n1 (stereo not shown) [IN10876-033-P1]	–	++ (++ means 200 nM-1000 nM)
Fc1ccc(Nc2cc(N3CCOCC3)nc(-n3ccc(C(F)F)n3)n2)cc1 [Compound 158, 2-(3-(difluoromethyl)-1H-pyrazol-1-yl)-N-(4-fluorophenyl)-6-morpholinopyrimidin-4-amine]	+++ (+++ means <200 nM)	–
Cc1cc(Nc2ccc(Cl)cc2)nc(-n2ccc(C(C)(C)O)n2)n1 [Compound 142, 2-(1-(4-((4-chlorophenyl)amino)-6-methylpyrimidin-2-yl)-1H-pyrazol-3-yl)propan-2-ol]	++ (++ means 200 nM-1000 nM)	–
Cc1csc(-c2nc(Nc3cccc(C(F)(F)F)c3)cc(C(C)O)n2)n1 (stereo not shown) [IN10880-092-P1]	–	++ (++ means 200 nM-1000 nM)

The remaining lines, values ahead:

SC100 uM	SC100 (μM)	SMILES
++ (++ means 200 nM-1000 nM)	–	Cc1cc(C)n(-c2nc(Nc3ccc(Cl)cc3)cc(N[C@@H](C)C(N)=O)n2)n1 (single isomer, unassigned) [Compound 124, (−)-2-((6-((4-chlorophenyl)amino)-2-(3,5-dimethyl-1H-pyrazol-1-yl)pyrimidin-4-yl)amino)propanamide]
–	+ (+ means >1 uM)	Cc1cc(C)n(-c2cc(C(C)O)cc(Nc3ccc(F)cc3)n2)n1 (stereo not shown) [IN10964-084-P1, 1-(2-(3,5-dimethyl-1H-pyrazol-1-yl)-6-((4-fluorophenyl)amino)pyridin-4-yl)ethan-1-ol]
+ (+ means >1 uM)	–	Cc1cc(Nc2ccc(F)cc2)nc(-n2ccc(C(C)(C)O)n2)n1 [Compound 138, 2-(1-(4-((4-fluorophenyl)amino)-6-methylpyrimidin-2-yl)-1H-pyrazol-3-yl)propan-2-ol]
+ (+ means >1 uM)	–	CC(O)c1ccn(-c2nc(Nc3ccc(F)cc3)cc(N3CC4(COC4)C3)n2)n1 (stereo not shown) [Compound 153, 1-(1-(4-((4-fluorophenyl)amino)-6-(2-oxa-6-azaspiro[3.3]heptan-6-yl)pyrimidin-2-yl)-1H-pyrazol-3-yl)ethan-1-ol]
–	+ (+ means >1 uM)	CN(C)C1CN(c2cc(Nc3ccc(F)cc3)nc(-n3ccc(CF)n3)c2)C1 [NSSy5713]
++ (++ means 200 nM-1000 nM)	–	Cc1cc(C)n(-c2nc(Nc3ccc(F)c(F)c3)cc(N3CCO[C@H](CO)C3)n2)n1 (single isomer, unassigned) [Compound 122, (−)-(4-(6-((3,4-difluorophenyl)amino)-2-(3,5-dimethyl-1H-pyrazol-1-yl)pyrimidin-4-yl)morpholin-2-yl)methanol]
++ (++ means 200 nM-1000 nM)	–	Cc1cc(C)n(-c2nc(Nc3ccc(Cl)cc3)cc(N[C@H](C)C(N)=O)n2)n1 (single isomer, unassigned) [Compound 123, (+)-2-((6-((4-chlorophenyl)amino)-2-(3,5-dimethyl-1H-pyrazol-1-yl)pyrimidin-4-yl)amino)propanamide]
+ (+ means >1 uM)	–	CC(=O)NCc1cc(Nc2ccc(F)cc2)nc(-n2ccc(C(F)F)n2)c1 [Compound 160, N-((2-(3-(difluoromethyl)-1H-pyrazol-1-yl)-6-((4-fluorophenyl)amino)pyridin-4-yl)methyl)acetamide]
+ (+ means >1 uM)	–	Cc1cc(C)n(-c2nc(Nc3ccc(F)c(F)c3)cc(N3CCOC(C(N)=O)C3)n2)n1 (stereo not shown) [Compound 127, 4-(6-((3,4-difluorophenyl)amino)-2-(3,5-dimethyl-1H-pyrazol-1-yl)pyrimidin-4-yl)morpholine-2-carboxamide]
–	+ (+ means >1 uM)	Cc1cc(Nc2ccc(F)cc2)nc(-c2ccccn2)n1 [IN11121-037-P1, N-(4-fluorophenyl)-6-methyl-2-(pyridin-2-yl)pyrimidin-4-amine]
++ (++ means 200 nM-1000 nM)	–	Cc1cc(Nc2ccc(F)cc2)nc(-n2ccc(CF)n2)n1 [Compound 141, 2-(3-(fluoromethyl)-1H-pyrazol-1-yl)-N-(4-fluorophenyl)-6-methylpyrimidin-4-amine]
+++ (+++ means <200 nM)	–	CC(=O)N1CCN(c2cc(-n3nc(C)cc3C)nc(Nc3ccc(F)cc3)n2)CC1 [Compound 103, 1-(4-(6-(3,5-dimethyl-1H-pyrazol-1-yl)-2-((4-fluorophenyl)amino)pyrimidin-4-yl)piperazin-1-yl)ethan-1-one]
+++ (+++ means <200 nM)	–	Cc1cc(C)n(-c2cc(N3CCO[C@@H](C(N)=O)C3)nc(Nc3ccc(F)c(F)c3)n2)n1 (single isomer, unassigned) [Compound 132, (−)-4-(2-((3,4-difluorophenyl)amino)-6-(3,5-dimethyl-1H-pyrazol-1-yl)pyrimidin-4-yl)morpholine-2-carboxamide]
